Data as given in patent US7473783B2, “Bicyclic pyrazolo protein kinase modulators” (SGX Pharmaceuticals, Inc., priority 2003, dated 2009).
Where a chain is given by its changes, count along the chain named.

Experiments:
[1] = target: T1, RON kinase (M1254T activation loop mutant) (Homo sapiens, UniProt Q04912, M1254T); assay: RON Kinase-Glo assay; type: biochemical; conditions: Table 9, 60 minutes to 120 minutes at RT
T1 construct: made in house
Text: (§1) Although this example presents the use of wild type MET and RON M1243T, the kinase assays may use various forms of mutant and wild type RON or MET, including, for example, the entire intracellular domain, the kinase domain, or a portion thereof. The kinases used in the assays may also be of varying phophorylation states. In the case of RON, a mutant kinase at a zero phosphorylation state was used.
(§2) For the MET and RON assays, the Kinase-Glo® assay system (Promega) was used, which employs firefly luciferase to detect the amount of ATP following a kinase reaction. This assay system has two steps. First, the kinase reaction is run for a designated period of time. Next, an equivalent volume of Kinase-Glo reagent is added to quench the kinase reaction and detect the ATP remaining in the sample. The total light output is read by a plate-reading luminometer and the resulting signal is stable for 4 hours. Inhibition of kinase activity translates into lower ATP consumption and thus higher light output during the detection step.
(§3) Materials: Poly EY 4:1 (Sigma); MgCl2 (2M stock available from Lab Support); HEPES buffer, pH 7.5; Bovine serum albumin (Roche 92423420); ATP (Sigma CAT#A-3377, FW=551); White Costar 384-well flat-bottom plate (VWR 29444-088); and SGX RON kinase clone (M1254T activation loop mutant) or SGX MET kinase clone.
RON enzyme mix: 100 mM HEPES pH 7.5, 10 mM MgCl2, 1 mg/mL poly EY, 0.1% BSA, and 3-5 μg/mL RON kinase (depending on enzyme prep).
(§4) To each well of a multiwell plate was added 15 μL of the enzyme mix, 1 μL of compound at 20-times the desired final assay concentration (or DMSO for positive controls or 200 μM staurosporine for negative controls), and 4 μL of 50 μM ATP to start the reaction. The kinase was reaction to allowed to proceed for 60 minutes at RT for the MET assay. For the RON assay, the reaction proceeded at RT for 60 minutes to 120 minutes (depending on enzyme prep). 20 μL Kinase-Glo reagent was then added to each well. The reagent was incubated for at least 10 minutes before plate reading.
(§5) Data anlaysis was performed using methods similar to those described above in the Abl assay (Firepower®, Exegetix).

[2] = target: T2, wild type MET kinase (Homo sapiens, UniProt P08581); assay: MET Kinase-Glo assay; type: biochemical; conditions: Table 9, 60 minutes at RT
T2 construct: made in house
T2 sequence (P08581 25-1390): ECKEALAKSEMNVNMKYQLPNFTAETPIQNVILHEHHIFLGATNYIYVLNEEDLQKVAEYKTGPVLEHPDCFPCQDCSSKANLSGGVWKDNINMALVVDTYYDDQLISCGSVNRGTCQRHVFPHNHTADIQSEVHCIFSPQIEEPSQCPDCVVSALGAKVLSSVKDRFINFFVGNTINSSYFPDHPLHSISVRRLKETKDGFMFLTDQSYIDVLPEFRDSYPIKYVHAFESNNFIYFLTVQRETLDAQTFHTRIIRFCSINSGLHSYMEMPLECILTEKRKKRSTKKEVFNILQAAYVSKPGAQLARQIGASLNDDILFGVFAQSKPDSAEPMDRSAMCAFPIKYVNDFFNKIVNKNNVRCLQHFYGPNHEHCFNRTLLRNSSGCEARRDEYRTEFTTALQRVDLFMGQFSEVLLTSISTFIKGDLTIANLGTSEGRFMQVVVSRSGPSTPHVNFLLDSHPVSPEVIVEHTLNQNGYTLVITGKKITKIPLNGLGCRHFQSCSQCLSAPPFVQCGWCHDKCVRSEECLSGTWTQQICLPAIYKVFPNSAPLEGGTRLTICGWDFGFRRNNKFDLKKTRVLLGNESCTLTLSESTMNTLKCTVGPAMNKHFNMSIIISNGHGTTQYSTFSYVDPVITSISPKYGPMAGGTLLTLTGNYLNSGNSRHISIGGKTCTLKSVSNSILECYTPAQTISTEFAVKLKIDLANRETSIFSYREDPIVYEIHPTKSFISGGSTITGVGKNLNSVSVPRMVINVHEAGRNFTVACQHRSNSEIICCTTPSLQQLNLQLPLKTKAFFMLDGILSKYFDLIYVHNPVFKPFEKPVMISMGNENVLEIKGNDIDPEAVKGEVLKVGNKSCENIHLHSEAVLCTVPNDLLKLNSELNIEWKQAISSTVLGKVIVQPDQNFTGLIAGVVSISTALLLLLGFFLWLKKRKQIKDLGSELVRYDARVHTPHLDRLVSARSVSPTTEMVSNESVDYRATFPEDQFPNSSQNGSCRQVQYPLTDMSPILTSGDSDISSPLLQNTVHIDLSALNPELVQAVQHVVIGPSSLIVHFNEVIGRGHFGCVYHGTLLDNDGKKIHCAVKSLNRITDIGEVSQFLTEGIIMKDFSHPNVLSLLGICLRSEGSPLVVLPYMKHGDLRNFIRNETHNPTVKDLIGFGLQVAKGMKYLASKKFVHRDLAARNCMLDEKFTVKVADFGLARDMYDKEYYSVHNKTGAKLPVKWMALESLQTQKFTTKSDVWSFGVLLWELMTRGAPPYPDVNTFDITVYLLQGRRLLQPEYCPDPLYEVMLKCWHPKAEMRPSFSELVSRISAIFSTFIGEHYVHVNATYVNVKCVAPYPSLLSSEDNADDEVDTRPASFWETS
Text: as §1, §2, §3
MET enzyme mix: 100 mM HEPES pH 7.5, 10 mM MgCl2, 0.3 mg/mL poly EY, 0.1% BSA, and 0.4 μg/mL MET kinase.
as §4, §5

[3] = target: T3, Abl T315I kinase domain, unphosphorylated (Mus musculus, UniProt P00520, T315I); assay: Abl T315I kinase assay (PK/LDH coupled, NADH loss at 340 nm); type: biochemical; conditions: Table 8; 10 μM ATP; zero phosphorylation state
T3 construct: Purified and unphosphorylated T315I Abl kinase domain (clone 5582d42PPt6p6); made in house; host or cells: E. coli BL21(DE3) pSA0145, phosphatase co-expression plasmid
T3 sequence (P00520 242-493 T315I limits assumed): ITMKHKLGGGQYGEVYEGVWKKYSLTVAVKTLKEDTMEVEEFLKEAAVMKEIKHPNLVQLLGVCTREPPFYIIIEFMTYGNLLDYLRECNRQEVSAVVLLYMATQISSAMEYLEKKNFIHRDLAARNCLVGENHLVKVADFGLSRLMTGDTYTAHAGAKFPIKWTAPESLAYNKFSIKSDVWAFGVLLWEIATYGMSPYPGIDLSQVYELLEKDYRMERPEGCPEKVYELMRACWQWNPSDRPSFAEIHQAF
Text: as §1, with “the kinase domain of a mutant form of Abl T315I 0-P,” for “wild type MET and RON M1243T,”, “Abl,” for “RON or MET,”, “molecule,” for “intracellular domain,”, “present example,” for “case of RON,”
(§6) Materials: Abl substrate peptide=EAIYAAPFAKKK-OH (Biopeptide, SD CA); βNADH (Sigma CAT#N-8129, FW=709.4); 2M MgCl2; 1M HEPES buffer, pH 7.5; Phosphoenolpyruvate=PEP (Sigma CAT#P-7002, FW=234); Lactate dehydrogenase=LDH (Worthington Biochemical CAT#2756); Pyruvate Kinase=PK (Sigma CAT#P-9136); ATP (Sigma CAT#A-3377, FW=551); Greiner 384-well UV star plate; and Purified and unphosphorylated T315I Abl kinase domain (clone 5582d42PPt6p6).
(§7) Stock Solutions: 10 mM NADH (7.09 mg/mL in miliQH2O) make fresh daily; 10 mM Abl substrate peptide (13.4 mg/mL in miliQH2O) store at −20° C.; 100 mM HEPES buffer, pH 7.5 (5 mL 1M stock+45 mL miliQH2O); 100 mM MgCl2 (5 mL 2M MgCl2+95 ml dH2O); 100 mM PEP (23.4 mg/mL in dH2O) store at −20° C.; 10 mM ATP (5.51 mg/mL in dH2O) store at −20° C. (dilute 50 μL into total of 10 mL miliQH2O daily=50 μM ATP working stock); 1000 U/mL PK (U/mg varies with lot) flash-freeze under liquid N2 and store at −80° C.; and 1000 U/mL LDH (U/mg varies with lot) flash-freeze under liquid N2 and store at −80° C.
(§8) Standard Assay Setup for 384-well format (50 μl reaction): 300 μM NADH; 10 mM MgCl2; 2 mM PEP; 45 U/mL PK; 60 U/mL LDH; 200 μM Abl substrate peptide; 2.5 μL test compound (in DMSO); 2 μg/mL Abl kinase domain; 10 μM ATP; 100 mM HEPES buffer; QS with miliQ dH2O to 50 μL; Positive controls contained DMSO with no test compound. Negative controls contained 5 μl of 0.5M EDTA (50 mM in the assay). The dephosphorylated form of the c-Abl T315I mutant were used in the biochemical screening assays. The kinase reaction was initiated at time t=0 by the addition of ATP.
(§9) The activity was measured by following the time-dependent loss of NADH by absorbance spectroscopy at 340 nm. The linear portion of the resulting progress curve was then be analyzed by linear regression to get the activity in absorbance units/time, reported as the slope of that best fit line (moles/unit time can be calculated from using molar extinction coefficient for NADH at 340 nm, 6250M^−1cm^−1).
(§10) Data was analyzed using the equation: Z′=1-[3*(σ++σ−)/|μ+−μ−|], where μ denotes the mean and σ the standard deviation. The subscript designates positive or negative controls. The Z′ score for a robust screening assay should be ≧0.50. The typical threshold=μ+−3*σ+. Any value that falls below the threshold was designated a “hit”.
(§11) Dose response was analyzed using the equation: y=min+{(max−min)/(1+10^[compound]-logIC50)}, where y is the observed initial slope, max=the slope in the absence of inhibitor, min=the slope at infinite inhibitor, and the IC50 is the [compound] that corresponds to ½ the total observed amplitude (Amplitude=max−min).
(§12) To measure modulation, activation, or inhibition of AblKD, a test compound was added to the assay at a range of concentrations. Inhibitors may inhibit AblKD activity at an IC50 in the micromolar range, the nanomolar range, and, for example, in the subnanomolar range.
(§13) To measure the binding of a compound to Abl or AblKD, a test kit manufactured by Discoverx (Fremont, Calif.), ED—Staurosporine NSIP™ Enzyme Binding Assay Kit (see U.S. Pat. No. 5,643,734) was used.

[4] = target: T4, Abl Y393F (Mus musculus, UniProt P00520, Y393F); assay: Abl Y393F kinase assay; type: biochemical; conditions: Table 8
T4 construct: 2 μg/mL Abl kinase domain; made in house
T4 sequence (P00520 242-493 Y393F limits assumed): T3 sequence (P00520 242-493 T315I limits assumed) with I74T, Y152F
Text: as §1, with “the kinase domain of a mutant form of Abl T315I 0-P,” for “wild type MET and RON M1243T,”, “Abl,” for “RON or MET,”, “molecule,” for “intracellular domain,”, “present example,” for “case of RON,”
as §6, §7, §8, §9, §10, §11, §12, §13

[5] = tested on: THP cells; assay: Cell survival assay (96-well XTT / 384-well AlamarBlue), THP; type: cell-based; conditions: Table 10; symbol in brackets; 72 hours
Description: (§14) Flt3 cell line selection was performed according to the following two known methodologies: Kelly, et al, Cancer Cell 1:421-32 (2002); and Ye, et al, Blood 100: 2941-2949 (2002). MV4-11 and THP cells are maintained in Iscove's Modified Dulbecco's Medium supplemented with 10% fetal bovine serum (FBS) and penicillin/streptomycin, Ba/F3 cells are maintained in RPMI 1640 supplemented with 10% FBS, penicillin/streptomycin and 5ng/ml recombinant mouse IL-3.
(§15) Compounds were tested in both of the following assays in triplicates.
(§16) 96-well XTT assay: Cells are grown in their growth media containing various concentrations of compounds (triplicates) on a 96-well plate for 72 hours at 37° C. The starting cell number is 8000 cells per well and volume is 120 μl. At the end of the 72-hour incubation, 40μl of XTT labeling mixture (50:1 solution of sodium 3′-[1 -(pheylamino-carbonyl)-3,4-tetrazolium]-bis (4-methoxy-6-nitro)benzene sulfonic acid hydrate and Electron-coupling reagent: PMS (N-methyl dibenzopyrazine methyl sulfate) is added to each well of the plate. After additional 2 hours of incubation at 37° C., the absorbance reading at 405 nm with background correction at 650 nm is done using a spectrophotometer.
(§17) 384-well AlamarBlue assay: 90 μl of cell suspension is plated onto each well of a 384-well plate preprinted with 0.5 μl of compound in DMSO or DMSO only. The starting cell number is 4000 cells per well. After 72-hour incubation, 10 μl of AlamarBlue solution (440 μM resazurin in PBS) is then added to each well of the plate. After additional 2-hour incubation at 37° C., fluorescence is measured using a TECAN plate reading with excitation at 535 nm and emission 591 nm.

[6] = tested on: MV4-11 cells; assay: Cell survival assay (96-well XTT / 384-well AlamarBlue), MV4-11; type: cell-based; conditions: Homo sapiens, Table 10, symbol outside brackets, 72 hours
Description: as §14, §15, §16, §17

[7] = target: T5, cAbl (Mus musculus, UniProt P00520); assay: Abl kinase assay (PK/LDH coupled, NADH loss at 340 nm); type: biochemical; conditions: Table 7; 10 μM ATP
T5 construct: 2 μg/mL Abl kinase domain; made in house; host or cells: E. coli BL21(DE3) strains
T5 sequence (P00520 242-493 limits assumed): T3 sequence (P00520 242-493 T315I limits assumed) with I74T
Text: as §1, with “the kinase domain of a mutant form of Abl T315I 0-P,” for “wild type MET and RON M1243T,”, “Abl,” for “RON or MET,”, “molecule,” for “intracellular domain,”, “present example,” for “case of RON,”
as §6, §7, §8, §9, §10, §11, §12, §13

T1 sequence (Q04912 25-1400 M1254T): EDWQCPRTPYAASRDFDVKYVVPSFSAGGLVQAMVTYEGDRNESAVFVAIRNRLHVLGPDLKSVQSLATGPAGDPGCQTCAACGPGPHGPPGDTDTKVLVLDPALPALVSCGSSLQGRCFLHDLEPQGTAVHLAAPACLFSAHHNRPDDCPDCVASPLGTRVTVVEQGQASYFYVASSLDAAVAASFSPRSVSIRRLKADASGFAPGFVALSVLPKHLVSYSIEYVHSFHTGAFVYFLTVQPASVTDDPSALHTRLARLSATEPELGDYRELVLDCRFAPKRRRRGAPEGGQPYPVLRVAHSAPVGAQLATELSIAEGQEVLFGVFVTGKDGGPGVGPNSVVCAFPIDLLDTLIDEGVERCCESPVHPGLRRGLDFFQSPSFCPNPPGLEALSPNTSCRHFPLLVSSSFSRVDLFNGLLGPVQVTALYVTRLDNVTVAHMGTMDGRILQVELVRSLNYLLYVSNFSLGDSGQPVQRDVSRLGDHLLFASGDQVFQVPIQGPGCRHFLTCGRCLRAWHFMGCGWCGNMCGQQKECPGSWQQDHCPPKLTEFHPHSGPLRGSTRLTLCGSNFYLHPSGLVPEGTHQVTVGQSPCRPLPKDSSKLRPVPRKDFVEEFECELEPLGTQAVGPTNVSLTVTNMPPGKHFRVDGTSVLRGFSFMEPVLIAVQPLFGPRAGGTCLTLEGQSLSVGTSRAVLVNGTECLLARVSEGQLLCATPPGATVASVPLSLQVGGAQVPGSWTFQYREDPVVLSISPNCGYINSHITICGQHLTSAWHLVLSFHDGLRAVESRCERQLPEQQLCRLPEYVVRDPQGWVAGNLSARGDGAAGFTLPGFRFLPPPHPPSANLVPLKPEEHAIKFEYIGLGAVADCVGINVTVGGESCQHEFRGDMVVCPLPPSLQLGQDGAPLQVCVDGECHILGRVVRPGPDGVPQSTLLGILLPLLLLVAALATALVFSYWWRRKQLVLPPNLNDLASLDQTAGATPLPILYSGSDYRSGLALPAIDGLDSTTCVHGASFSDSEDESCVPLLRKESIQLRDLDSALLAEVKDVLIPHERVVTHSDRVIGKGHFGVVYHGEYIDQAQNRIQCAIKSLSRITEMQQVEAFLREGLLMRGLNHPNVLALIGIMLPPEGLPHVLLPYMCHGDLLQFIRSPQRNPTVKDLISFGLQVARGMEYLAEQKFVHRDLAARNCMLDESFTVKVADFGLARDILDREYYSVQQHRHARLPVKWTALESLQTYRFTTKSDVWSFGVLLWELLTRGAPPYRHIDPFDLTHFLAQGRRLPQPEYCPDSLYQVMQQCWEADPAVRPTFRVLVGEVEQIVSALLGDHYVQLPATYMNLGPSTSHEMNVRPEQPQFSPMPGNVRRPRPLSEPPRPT

SMILES | IC50 [1] | IC50 [2] | IC50 [3] | IC50 [4] | also measured
O=C(Nc1nc2[nH]nc(-c3ccccc3)c2s1)c1cccs1 |  |  | 0.5 to 1 µM | 0.5 to 1 µM | 
CC(=O)N1CCC(C(=O)Nc2nc3[nH]nc(-c4ccccc4)c3s2)CC1 [drawing 284] |  |  |  |  | IC50 [5]: 11 to 100 µM; IC50 [6]: 1 to 10 µM
O=C(Nc1nc2[nH]nc(-c3ccccc3)c2s1)c1ccncc1 [drawing 282] |  |  |  |  | IC50 [5]: 11 to 100 µM; IC50 [6]: 1 to 10 µM
COc1cccc(OC)c1C(=O)Nc1nc2[nH]nc(-c3ccccc3Cl)c2s1 | 5 to 20 µM | 5 to 20 µM |  |  | 
O=C(Nc1nc2[nH]nc(-c3ccccn3)c2s1)c1ccccc1 |  |  |  |  | IC50 [7]: 11 to 100 µM
O=C(Nc1nc2[nH]nc(-c3ccccc3)c2s1)c1ccco1 [drawing 268] |  |  | < 0.5 µM | < 0.5 µM | 
O=C(Nc1nc2[nH]nc(-c3cccc(Cl)c3)c2s1)c1ccccc1 |  |  |  |  | IC50 [7]: 1 to 10 µM
COc1ccc(-c2n[nH]c3nc(NC(=O)c4ccccc4)sc23)cc1 |  |  |  |  | IC50 [7]: 11 to 100 µM
Nc1nc2[nH]nc(-c3ccccc3)c2s1 |  |  |  |  | IC50 [7]: 11 to 100 µM
O=C(Nc1nc2[nH]nc(-c3ccccc3)c2s1)c1ccco1 [drawing 264] |  |  |  |  | IC50 [7]: < 1 µM
O=C(Cc1cccs1)Nc1nc2[nH]nc(-c3ccccc3)c2s1 |  |  |  |  | IC50 [7]: < 1 µM

More lines, main results first:

IC50 [1] | IC50 [2] | IC50 [3] | IC50 [4] | SMILES | also measured
> 20 µM | > 20 µM |  |  | COc1ccc(-c2n[nH]c3nc(NC(=O)C4CC4)sc23)cc1 [drawing 280] | 
 |  | > 1 µM | > 1 µM | CC(=O)Nc1nc2[nH]nc(-c3ccccc3Cl)c2s1 | 
5 to 20 µM | < 5 µM |  |  | O=C(Nc1nc2[nH]nc(-c3ccc(O)cc3)c2s1)C1CC1 [drawing 274] | 
> 20 µM | > 20 µM |  |  | CC(=O)O[C@@H](C)C(=O)Nc1nc2[nH]nc(-c3ccccc3Cl)c2s1 | 
 |  | < 0.5 µM | < 0.5 µM | O=C(Nc1nc2[nH]nc(-c3ccccc3Cl)c2s1)C1CC1 [drawing 266] | 
 |  | > 1 µM | > 1 µM | COCC(=O)Nc1nc2[nH]nc(-c3ccccc3)c2s1 | 
 |  | > 1 µM | > 1 µM | O=C(Nc1nc2[nH]nc(-c3cccc(Br)c3)c2s1)c1ccccc1 | 
 |  | 0.5 to 1 µM | > 1 µM | COc1ccc(-c2n[nH]c3nc(NC(=O)C4CC4)sc23)cc1 [drawing 271] | 
 |  | < 0.5 µM | < 0.5 µM | O=C(Nc1nc2[nH]nc(-c3ccccc3Br)c2s1)C1CC1 [drawing 267] | 
5 to 20 µM | < 5 µM |  |  | CC(C)C(=O)Nc1nc2[nH]nc(-c3ccccc3Cl)c2s1 | 
5 to 20 µM | < 5 µM |  |  | O=C(Nc1nc2[nH]nc(-c3ccccc3Cl)c2s1)C1CC1 [drawing 276] | 
> 20 µM | 5 to 20 µM |  |  | O=C(Nc1nc2[nH]nc(-c3ccccc3Br)c2s1)C1CC1 [drawing 278] | 
